This is an account of results in patent publication US10087399B2, “Use of alkoxylated non-ionic surfactants as additive in aqueous membrane cleaning compositions” (BASF SE, priority 2012, dated 2018).

In series [1] the test system is Cobetia marina (DSMZ4741) bacterial fouling layer. Briefly: Cleaning of bacterial fouling layer on PA, fluorescence spectroscopy (DAPI / Concanavalin A). The class given is cell-based. The procedure:
Bacterial Strain and Growth Conditions
To generate bacterial fouling layers, the marine bacterium Cobetia marina (DSMZ4741) was used in this study. The strain was purchased from the DSMZ culture collections, Germany. Sea Salt Peptone (SSP, all ingredients purchased from Sigma-Aldrich) (sea salt 20 g; peptone 18 g; deionised water 1,000 ml, pH 7.8) was used as the growth medium. The culture stock was maintained on Sea Salt Peptone Agar (SSPA, all ingredients purchased from Sigma-Aldrich) slants (sea salt 20 g; peptone 18 g; agar 30 g; deionised water 1,000 ml, pH 7.8). Prior to the experiments, the culture was grown in the SSP medium on a rotary shaker at 180 rpm at 28° C. for 20-22 h in order to obtain cells in the logphase.
Preparation of Bacterial Fouling Layers
The polyamid thin film substrates prepared on glass slides were conditioned for 24 h in artificial seawater (sea salt 20 g; deionised water 1,000 ml, pH 7.8) before being transferred to the bacterial cell suspensions. A freshly grown (logphase) bacterial suspension was prepared with an absorbance of 0.2 at a wavelength of 600 nm (DU 800, Beckman Coulter, Krefeld, Germany). The conditioned replicate slides (four for each assay) were placed into individual compartments of quadric petri dishes and 5 ml of the bacterial suspension was added thereby fully immersing the slides. The plates were placed in an incubator at 28° C. on a rotary shaker (90 rpm). After 1 h of incubation, the slides were transferred into new quadric petri dishes containing 5 ml of fresh SSP medium. The plates were incubated for another 4 h at 28° C. on a rotary shaker (90 rpm) for the attached bacteria to proliferate on the surface of the slides. At the end of the incubation, the slides were gently rinsed in artificial seawater to remove any non-adherent cells.
Cleaning Experiments with Bacterial Fouling Layers
Similar to the experiments using the multi-component molecular fouling layers, selected cleaning conditions (pH 12) and agents were tested for their ability to remove bacterial cells and EPS matrix. Additionally, the cleaning potential of the protease subtilisin (Subtilisin A type VIII from Bacillus licheniformis, 12 U/mg, Sigma-Aldrich) and methylglycine diacetic acid, sodium salt ([…], BASF SE) applied alone or in combination with the surfactant 2-propylheptanol, 6 EO, 1 PO (Lutensol⋅ XL 60, BASF SE) was evaluated. For that, the enzyme (100 μg/ml) and/or chelating agent (active concentration of 0.2%) and/or the surfactant (active concentration of 0.025%) were dissolved in 10 mM NaH2PO4 buffer (Sigma-Aldrich, pH 8.1). The bacterial fouling layers were immersed in the particular cleaning solution for 10 min at room temperature followed by rinsing in deionised water. After that, they were immediately fixed.
For fluorescence microscopy/spectroscopy and atomic force microscopy, bacterial fouling layers were fixed by transferring the respective slides into quadric petri dishes containing 4% paraformaldehyde (Sigma-Aldrich). After incubation for 15 min, the layers were rinsed with deionised water and dried by nitrogen.
For fluorescence staining, the slides were placed into custom-made incubation chambers in order to avoid backside staining. To stain the EPS matrix, Alexa 488-conjugated Concanavalin A (Molecular Probes, distributed by Invitrogen, Netherlands) dissolved in 0.1 M sodium bicarbonate (SigmaAldrich) buffer (pH 8.3) was added for 1 h in the dark (25 μg/cm^2). After incubation, the solution was removed and samples were washed with phosphate buffered saline (PBS, Sigma-Aldrich) twice. For staining of bacterial cells, DAPI solution (dissolved in PBS) was applied to Concanavalin A-stained samples for 5 min in the dark (25 μg/cm^2). After removal of the solution, the layers were washed with deionised water twice. Samples were taken out of the incubation chambers and dried by nitrogen.
Quantification of Cleaning Efficiency by Fluorescence Spectroscopy […]

Series [2] in a line: Dynamic contact angle on PA. The class given is physicochemical. Particulars: 0.2 g/l aqueous, 23° C. The procedure:
(§1) Determination of the Dynamic Contact Angle
(§2) The dynamic contact angle was measured with a video based high velocity measuring instrument for contact angle determination of the type OCAH 200 of the company Dataphysics Instruments 5 GmbH, Raiffeisenstr. 34, Fildersstadt, on the spin-coated glass slides.
(§3) The surfactants according to the invention listed in Tables […] used in an aqueous solution at a concentration of 0.2 g/l.
(§4) The contact angel is constantly determined (60 times per second) at 23° C. during 10 seconds after application. Under these conditions the contact angel of water without added surfactant remains at approximately at 65°. The contact angle on PA of the aqueous solutions of the branched tridecylethoxylates drops to 10° to 33°. The contact angle on PES of the aqueous solutions of the branched tridecylethoxylates drops to 17° to 37°. A contact angle after 10 seconds below 30° is preferred.

Series [3] in a line: Dynamic contact angle on PES. Particulars: 0.2 g/l aqueous, 23° C. Format: physicochemical. The procedure: as §1, §2, §3, §4
Where [4] appears, read: 10 mM NaH2PO4 buffer pH 8.1, surfactant 0.025%, chelating agent 0.2%, enzyme 100 μg/ml, 10 min.

For 2-Propylheptanol, 6 EO [Nr 22], in series [1] (0.025%, pH 12, 10 min), the “Cleaning Performance, Cells (DAPI)” value is listed as 25,1% and the “Cleaning Performance, Matrix (Concanavalin A)” value (from here on “Cleaning Performance, Matrix”) is on record as 0,2%.
Regarding 2-Propylheptanol, 6 EO, 1 PO [Nr 18], the “Cleaning Performance, Cells (DAPI)” value in series [1] (setting [4]) is 31,8%; in series [1] (0.025%, pH 12, 10 min) it was 51,7%. The “Cleaning Performance, Matrix” value was 16,5% in series [1] (setting [4]) and 9,6% in series [1] (0.025%, pH 12, 10 min).
In the case of 2-Propylheptanol, 6 EO, 5 PO [Nr 38], in series [1] (0.025%, pH 12, 10 min), the “Cleaning Performance, Cells (DAPI)” value is listed as 52,8% and the “Cleaning Performance, Matrix” value is reported as 15,2%.
For the molecule `CC(C(=O)[O-])N(CC(=O)[O-])CC(=O)[O-].[Na+].[Na+].[Na+]` (stereo not shown) [Methylglycine diacetic acid, sodium salt, reference compound], in series [1] (setting [4]), the “Cleaning Performance, Cells (DAPI)” value was 47,7% and the “Cleaning Performance, Matrix” value was 42,5%. Moreover, in series [1] (0.025%, pH 12, 10 min), the “Cleaning Performance, Cells (DAPI)” value is 73,5% and the “Cleaning Performance, Matrix” value was 42,5%.
Regarding branched C13—OH, 7 EO [Nr 4], the values for the Contact angle at 0.1 s in series [2] (0.1 s) and in series [3] (0.1 s) were 48.2 ° and 45.0°, respectively. Further, the figures for the Contact angle at 1 s in series [2] (1.0 s) and in series [3] (1.0 s) were 32.3 ° and 34.8°, respectively. The Contact angle at 10 s in series [2] (10.0 s) worked out at 10.5 °; in series [3] (10.0 s), 17.9°.
On to “linear alkylbenzenesulfonate, sodium salt [Nr 41, reference compound]”, for which, in series [1] (0.025%, pH 12, 10 min), the “Cleaning Performance, Cells (DAPI)” value is 35,9% and the “Cleaning Performance, Matrix” value is on record as 10,8%.

B1: Subtilisin: protease subtilisin (Subtilisin A type VIII from Bacillus licheniformis, 12 U/mg, Sigma-Aldrich) (protein, UniProt P00780 106-379, looked up)
Subtilisin Carlsberg: AQTVPYGIPLIKADKVQAQGFKGANVKVAVLDTGIQASHPDLNVVGGASFVAGEAYNTDGNGHGTHVAGTVAALDNTTGVLGVAPSVSLYAVKVLNSSGSGSYSGIVSGIEWATTNGMDVINMSLGGASGSTAMKQAVDNAYAKGVVVVAAAGNSGSSGNTNTIGYPAKYDSVIAVGAVDSNSNRASFSSVGAELEVMAPGAGVYSTYPTNTYATLNGTSMASPHVAGAAALILSKHPNLSASQVRNRLSSTATYLGSSFYYGKGLINVEAAAQ
For B1, in series [1] (setting [4]), the “Cleaning Performance, Cells (DAPI)” value was 17,8% and the “Cleaning Performance, Matrix” value was 10,5%.
